ChEMBL document CHEMBL1151387, “Constitutents of Magnolia Grandiflora. III. Toxic principle of the wood” (J Nat Prod, 1982)
Calls of active or inactive are those of the source. No cut-off for these calls is given here.

Columns and labels:
[1] = Toxicity in ip dosed mouse; type: organism-based; details: in vivo
Mus musculus [2] = experiment: Effect on behavioral activity in ip dosed mouse assessed as occurrence of mydriasis for 30 mins; type: functional, organism-based
Mus musculus [3] = experiment: Toxicity in ip dosed mouse assessed as labored breathing and depression at LD50; type: organism-based; details: in vivo
Mus musculus [4] = experiment: Toxicity in ip dosed mouse assessed as death at LD50; type: organism-based; details: in vivo
[5] = Toxicity in iv dosed mouse; type: organism-based; details: in vivo

## COc1ccc2c(c1O)-c1c(O)c(OC)cc3c1[C@H](C2)[N+](C)(C)CC3 [MAGNOFLORINE]
[1]
  LD50: 19.6 mg/kg
Mus musculus [2]
  Activity: Active
Mus musculus [3]
  Activity: 5 min
Mus musculus [4]
  Activity: 15 min

## COc1ccc2c(c1O)-c1c(OC)c(OC)cc3c1[C@H](C2)[N+](C)(C)CC3.[I-]
[1]
  LD50: 10 mg/kg

## COc1ccc2c(c1O)-c1c(OC)c(OC)cc3c1[C@H](C2)[N+](C)(C)CC3.[Cl-]
[5]
  LD50: 2.2 mg/kg
